Tests used:
[1] = test system: Mycobacterium tuberculosis; test: Antimicrobial activity against Mycobacterium tuberculosis H37Rv at < 6.25 ug/ml; type: functional
[2] = test system: Mycobacterium tuberculosis; test: Antimicrobial activity against Mycobacterium tuberculosis H37Rv; type: functional

With `CC1=NN(c2ccc3c(c2)Nc2ccccc2S3)C2N=C(S)NC(c3ccccc3[N+](=O)[O-])C12` (stereo unspecified) the “inhibition (INH)” value [1] was 96% and the MIC [2] was under 6.25 µg/mL.

For `CC1=NN(c2ccc3c(c2)Nc2ccccc2S3)C2N=C(S)NC(c3ccccc3Cl)C12` (stereo unspecified), the “inhibition (INH)” value [1] was 91% and the MIC [2] was under 6.25 µg/mL.

With `CC1=NN(c2ccc3c(c2)Nc2ccccc2S3)C2N=C(S)NC(c3ccc(O)cc3)C12` (stereo unspecified) the “inhibition (INH)” value [1] was 68% and the MIC [2] was over 6.25 µg/mL.

In the case of `CC1=NN(c2ccc3c(c2)Nc2ccccc2S3)C2N=C(S)NC(c3ccccc3O)C12` (stereo unspecified), the “inhibition (INH)” value [1] is reported as 93% and the MIC [2] is reported as under 6.25 µg/mL.

In the case of `CC1=NN(c2ccc3c(c2)Nc2ccccc2S3)C2N=C(S)NC(c3ccccc3)C12` (stereo unspecified), the “inhibition (INH)” value [1] is reported as 75% and the MIC [2] is reported as over 6.25 µg/mL.

With `CC1=NN(c2ccc3c(c2)Nc2ccccc2S3)C2N=C(S)NC(c3ccc([N+](=O)[O-])cc3)C12` (stereo unspecified) the “inhibition (INH)” value [1] was 54% and the MIC [2] was over 6.25 µg/mL.

In the case of `COc1ccc(C2NC(S)=NC3C2C(C)=NN3c2ccc3c(c2)Nc2ccccc2S3)cc1` (stereo unspecified), the “inhibition (INH)” value [1] is reported as 63% and the MIC [2] is reported as over 6.25 µg/mL.

In the case of `CC1=NN(c2ccc3c(c2)Nc2ccccc2S3)C2N=C(S)NC(c3ccc(Cl)cc3)C12` (stereo unspecified), the “inhibition (INH)” value [1] is reported as 74% and the MIC [2] is reported as over 6.25 µg/mL.

From ChEMBL document CHEMBL3045226, “Synthesis and anti-tubercular evaluation of some novel pyrazolo[3,4-d]pyrimidine derivatives” (2012)
